The results in this text go back to US8822699B2, “Heterocyclic compound and use thereof” (Takeda Pharmaceutical Company Limited, priority 2010, dated 2014).

Assay [1] deals with Aβ42 production in primary nerve cells. The experiment in a line: Measurement of amyloid β production inhibition rate using primary nerve cell (Aβ42 sandwich ELISA). It is filed as cell-based. The following applies: primary nerve cells from cerebral cortex of SD rat fetus, cultured 3 days with compound, culture supernatant, sandwich ELISA for Aβ42, read-out: Aβ42 production inhibitory activity IC50. The procedure: Measurement of Amyloid β Production Inhibition Rate Using Primary Nerve Cell
The primary nerve cells were collected from the cerebral cortex of rat fetus (CLEA Japan, Inc.: SD rat, fetal life 17 days of age), and suspended in a neurobasal medium containing B27 supplement, L-glutamine, penicillin-streptomycin (manufactured by Invitrogen) at 500,000 cells/mL. Then, the suspension was seeded in poly L-lysine-coated 96 well plate (manufactured by SUMITOMO BAKELITE) by 100 μL, and cultured at 37° C., 5% CO2 for 7 days. The medium was completely removed, and a new neurobasal medium was added at 75 μL/well. Thereto was added (75 μL/well) a neurobasal medium supplemented with a 2-fold measurement concentration of an evaluation target compound, and the mixture was cultured for 3 days. The culture supernatant was collected from each well, diluted as appropriate, applied to sandwich ELISA between BNT77 antibody-BA27 antibody (for Aβ40) and sandwich ELISA between BNT77 antibody-3005 antibody (for Aβ42), and the amounts of Aβ40 and Aβ42 were measured.
The amyloid β production inhibition rate (%) of the compound was calculated by the following formula. (1−(amyloid β production amount with addition of compound)/(amyloid β production amount without addition of compound))×100
The amyloid β production 50% inhibitory rate (IC50 value) was calculated using the statistical analysis software (SAS Preclinical Package) as the concentration of the compound showing 50% inhibition when the amyloid β production amount without addition of the compound is 100%. In addition, a new neurobasal medium was added (75 μL/well) to the cells after collection of the culture supernatant, and the cells were left standing for about 30 min to reach room temperature. Cell-Titer Glo Luminescent Cell Viability Assay (manufactured by Promega) was added at 75 μL/well, and the plate was shaken for 2 min and reacted for about 10 min.

Assay [2] deals with Aβ42 (soluble Aβ in hippocampi). The experiment in a line: Aβ42 in hippocampi of mice after oral administration (Aβ ELISA). It is filed as in vivo. The following applies: C57BL/6J mice, 10 mg/kg orally, hippocampi isolated 3 hours after administration, soluble Aβ42 by two-site sandwich ELISA; for Aβ42 production inhibitory activity (% inhibition): 10 mg/kg; for inhibition at 10 mg/kg: Mus musculus, po, 3 h, read-out: Aβ42 production inhibitory activity (% inhibition). Here is the method: C57BL/6J mice (7-10 weeks old) were purchased from CLEA Japan Inc. Mice were housed in groups and kept on a 12 h-light; 12 h-dark schedule. All mice were given ad libitum access to food and water.
Each test compound was reconstituted in solubilization buffer ([DMSO (Wako)]: [10% Cremophor (Nakarai)+30% polyethylene glycol 400 (Wako)+60% 2 mol/L Citrate buffer (Wako)]=1:9) and orally administrated at 10 mg/kg.
Hippocampi was isolated from animals, 3 hours after test compounds were orally administrated. Hippocampi were homogenized in ice-cold Tris-extraction buffer (50 mmol/L Tris-HCl, pH 7.2, 200 mmol/L sodium chloride, 2% protease-free bovine serum albumin, and 0.01% sodium merthiolate) containing protease inhibitor cocktails (Roche, Switzerland). After centrifugation at 15,000 rpm for 15 minutes, the supernatants were subjected to two-site sandwich ELISA to measure amount of soluble Aβ. Aβ42 was quantitated by two-site sandwich ELISA using BNT77, which recognizes Aβ11-28, as a capture antibody and BC05-HRP as a detector antibody, respectively.
Background: An ELISA detects its analyte on a solid surface through an enzyme-linked reagent.

Where two headings read alike, the source gives them in different places.

As a reminder, the IC50 is the point on the concentration scale where inhibition reaches its midpoint. For the compound `COc1cc(-c2nnc3n2CCCC3(Oc2ccc(C(F)(F)F)cc2)C(C)(C)O)ccc1-c1cnc(C)o1` (stereo not shown) [Example 132, 2-{3-[3-methoxy-4-(2-methyl-1,3-oxazol-5-yl)phenyl]-8-[4-(trifluoromethyl)phenoxy]-5,6,7,8-tetrahydro[1,2,4]triazolo[4,3-a]pyridin-8-yl}propan-2-ol], the IC50 in assay [1] was found to be 19 nM. Besides, the “Aβ42 production inhibitory activity (% inhibition)” value in assay [2] is listed as 58%.

In general, inhibition refers to the relative decrease from the control value, in per cent. Turning to `COc1nc(-c2nnc3n2CCCC3(Oc2cc(F)c(F)c(F)c2)C(C)(C)O)ccc1-n1cnc(C)c1` (stereo not shown) [Example 134, 2-{3-[6-methoxy-5-(4-methyl-1H-imidazol-1-yl)pyridin-2-yl]-8-(3,4,5-trifluorophenoxy)-5,6,7,8-tetrahydro[1,2,4]triazolo[4,3-a]pyridin-8-yl}propan-2-ol], in assay [1] (Rattus norvegicus, 72 h), the IC50 was 42 nM. Further, the inhibition at 10 mg/kg in assay [2] stood at 31%.

In the case of `COc1cc(-c2nnc3n2CCCC3(Oc2ccc(Cl)c(C(F)(F)F)c2)C(C)(C)O)ccc1-n1cnc(C)n1` (stereo not shown) [Example 139, 2-{8-[4-chloro-3-(trifluoromethyl)-phenoxy]-3-[3-methoxy-4-(3-methyl-1H-1,2,4-triazol-1-yl)phenyl]-5,6,7,8-tetrahydro-[1,2,4]triazolo[4,3-a]pyridin-8-yl}propan-2-ol], in assay [1] (Rattus norvegicus, 72 h), the IC50 came to 40 nM. Further, the inhibition at 10 mg/kg in assay [2] is 22%.

For `COc1cc(-c2nnc3n2CCCC3(Oc2cc(F)cc(F)c2)C(C)(C)O)ccc1-c1cnc(C)o1` (stereo not shown) [Example 141, 2-{8-(3,5-difluorophenoxy)-3-[3-methoxy-4-(2-methyl-1,3-oxazol-5-yl)phenyl]-5,6,7,8-tetrahydro[1,2,4]triazolo[4,3-a]pyridin-8-yl}propan-2-ol], the IC50 in assay [1] came out at 78 nM. The inhibition at 10 mg/kg in assay [2] turned out to be 46%.

Regarding `COc1cc(-c2nnc3n2CCCC3(Oc2cc(F)c(F)c(F)c2)C(C)(C)O)ccc1-c1cnn(C)c1` (stereo not shown) [Example 144, 2-{3-[3-methoxy-4-(1-methyl-1H-pyrazol-4-yl)phenyl]-8-(3,4,5-trifluorophenoxy)-5,6,7,8-tetrahydro[1,2,4]triazolo[4,3-a]pyridin-8-yl}propan-2-ol], the IC50 in assay [1] (Rattus norvegicus, 72 h) was found to be 214 nM. Also, the inhibition at 10 mg/kg in assay [2] came to 31%.

Regarding `COc1nc(-c2nnc3n2CCC[C@]3(Oc2cc(F)c(F)c(F)c2)C(C)(C)O)ccc1-n1cnc(C)c1` [Example 152, 2-{(8R)-3-[6-methoxy-5-(4-methyl-1H-imidazol-1-yl)pyridin-2-yl]-8-(3,4,5-trifluorophenoxy)-5,6,7,8-tetrahydro[1,2,4]triazolo[4,3-a]pyridin-8-yl}propan-2-ol], the concentration for half-maximal inhibition (IC50) in assay [1] (Rattus norvegicus, 72 h) was found to be 49 nM. For the same compound, in assay [2], the inhibition at 10 mg/kg is 57%.

On to `COc1cc(-c2nnc3n2CCCC3(Oc2cc(F)cc(F)c2)C(C)(C)O)ccc1-c1cnc(C)o1` (stereo not shown) [Example 155, 2-{8-(3,5-difluorophenoxy)-3-[3-methoxy-4-(2-methyl-1,3-oxazol-5-yl)phenyl]-5,6,7,8-tetrahydro[1,2,4]triazolo[4,3-a]pyridin-8-yl}propan-2-ol], for which the concentration for half-maximal inhibition (IC50) in assay [1] came out at 28 nM. Also, the “Aβ42 production inhibitory activity (% inhibition)” value in assay [2] was determined as 56%.

For `COc1nc(-c2nnc3n2CCCC3(Oc2ccc(F)c(C(F)(F)F)c2)C(C)(C)O)ccc1-n1cnc(C)c1` (stereo not shown) [Example 157, 2-{8-[4-fluoro-3-(trifluoromethyl)phenoxy]-3-[6-methoxy-5-(4-methyl-1H-imidazol-1-yl)pyridin-2-yl]-5,6,7,8-tetrahydro[1,2,4]triazolo[4,3-a]pyridin-8-yl}propan-2-ol], the IC50 in assay [1] was 6 nM. Moreover, the inhibition at 10 mg/kg in assay [2] was 61%.

With `COc1cc(-c2nnc3n2CCCC3(Oc2cc(F)c(F)c(F)c2)C(C)(C)O)c(F)cc1-c1cnc(C)o1` (stereo not shown) [Example 162, 2-{3-[2-fluoro-5-methoxy-4-(2-methyl-1,3-oxazol-5-yl)phenyl]-8-(3,4,5-trifluorophenoxy)-5,6,7,8-tetrahydro[1,2,4]triazolo[4,3-a]pyridin-8-yl}propan-2-ol], the IC50 in assay [1] (Rattus norvegicus, 72 h) is 86 nM. For the same compound, the inhibition at 10 mg/kg in assay [2] is 26%.

Turning to `COc1nc(-c2nnc3n2CCCC3(Oc2cc(F)c(F)c(F)c2)C(C)(C)O)ccc1-c1cnc(C)o1` (stereo not shown) [Example 172, 2-{3-[6-methoxy-5-(2-methyl-1,3-oxazol-5-yl)pyridin-2-yl]-8-(3,4,5-trifluorophenoxy)-5,6,7,8-tetrahydro[1,2,4]triazolo[4,3-a]pyridin-8-yl}propan-2-ol], in assay [1] (Rattus norvegicus, 72 h), the IC50 was 47 nM. Besides, the inhibition at 10 mg/kg in assay [2] came to 35%.

In the case of `COc1cc(-c2nnn3c2CCCC3(Oc2cc(F)c(F)c(F)c2)C(C)(C)O)ccc1-c1cnc(C)o1` (stereo not shown) [Example 186, 2-{3-[3-methoxy-4-(2-methyl-1,3-oxazol-5-yl)phenyl]-7-(3,4,5-trifluorophenoxy)-4,5,6,7-tetrahydro[1,2,3]triazolo[1,5-a]pyridin-7-yl}propan-2-ol], the IC50 in assay [1] came out at 28 nM. Besides, in assay [2], the inhibition at 10 mg/kg turned out to be 22%.
